pIC50: −log10 of the molar value.
target: T1, Sterol O-acyltransferase 1 (Chlorocebus aethiops, UniProt O77760); assay: Inhibition of African green monkey SOAT1 expressed in CHO cells assessed as reduction in [14C]cholesteryl ester formation from [1-14C]oleic acid measured after 6 hrs; assay type: ADME, cell-based; conditions: not given
T1 sequence (O77760 whole entry): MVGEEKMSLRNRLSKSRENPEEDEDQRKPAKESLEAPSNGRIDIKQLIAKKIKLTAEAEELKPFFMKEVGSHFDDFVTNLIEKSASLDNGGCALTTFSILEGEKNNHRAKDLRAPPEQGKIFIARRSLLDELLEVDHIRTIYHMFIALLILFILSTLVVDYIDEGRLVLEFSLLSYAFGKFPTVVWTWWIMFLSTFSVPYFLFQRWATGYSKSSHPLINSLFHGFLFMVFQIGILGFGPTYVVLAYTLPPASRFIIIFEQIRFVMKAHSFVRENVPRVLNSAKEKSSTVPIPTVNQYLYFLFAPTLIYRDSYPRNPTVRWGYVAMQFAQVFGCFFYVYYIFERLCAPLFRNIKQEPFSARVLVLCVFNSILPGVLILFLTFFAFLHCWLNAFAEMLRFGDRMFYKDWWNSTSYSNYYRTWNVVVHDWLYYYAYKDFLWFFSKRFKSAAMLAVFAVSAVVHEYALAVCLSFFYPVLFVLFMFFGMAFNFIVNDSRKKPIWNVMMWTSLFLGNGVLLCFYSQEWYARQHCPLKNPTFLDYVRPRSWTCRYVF

Compound	pIC50
CCC[C@H]1C/C(=N/OCc2ccccc2)C[C@]2(O1)C(=O)Nc1ccccc12	4.85
CCC[C@@H]1C/C(=N/OCc2ccccc2)C[C@@]2(O1)C(=O)Nc1ccccc12	4.80
CCC[C@@H]1CC(=NOCc2ccccc2)C[C@@]2(O1)C(=O)Nc1ccccc12 (racemic)	5.05
CCC[C@@H]1C[C@@H](NCc2ccccc2)C[C@@]2(O1)C(=O)N(C)c1ccccc12 (racemic)	< 4.57
CCC[C@@H]1C[C@@H](N2CCCC2)C[C@@]2(O1)C(=O)Nc1ccccc12 (racemic)	< 4.51

Now from value to molecule:

pIC50	Compound
< 4.55	CCC[C@@H]1CC(=O)C[C@@]2(O1)C(=O)N(C)c1cccc(Br)c12
< 4.55	CCC[C@@H]1C[C@@H](NCc2ccccc2)C[C@@]2(O1)C(=O)Nc1ccccc12 (racemic)
< 4.66	CCC[C@@H]1C[C@@H](NCc2ccccc2)C[C@@]2(O1)C(=O)N(C)c1cccc(Br)c12 (racemic)
< 4.64	CCC[C@@H]1C[C@@H](NCc2ccccc2)C[C@@]2(O1)C(=O)Nc1cccc(Br)c12 (racemic)
4.96	CCC[C@@H]1C[C@@H](NCc2ccccc2)C[C@@]2(O1)C(=O)N(Cc1ccccc1)c1ccccc12 (racemic)

target: T2, Sterol O-acyltransferase 2 (Chlorocebus aethiops, UniProt O77759); assay: Inhibition of African green monkey SOAT2 expressed in CHO cells assessed as reduction in [14C]cholesteryl ester formation from [1-14C]oleic acid measured after 6 hrs; assay type: cell-based; conditions: not given
T2 sequence (O77759 whole entry): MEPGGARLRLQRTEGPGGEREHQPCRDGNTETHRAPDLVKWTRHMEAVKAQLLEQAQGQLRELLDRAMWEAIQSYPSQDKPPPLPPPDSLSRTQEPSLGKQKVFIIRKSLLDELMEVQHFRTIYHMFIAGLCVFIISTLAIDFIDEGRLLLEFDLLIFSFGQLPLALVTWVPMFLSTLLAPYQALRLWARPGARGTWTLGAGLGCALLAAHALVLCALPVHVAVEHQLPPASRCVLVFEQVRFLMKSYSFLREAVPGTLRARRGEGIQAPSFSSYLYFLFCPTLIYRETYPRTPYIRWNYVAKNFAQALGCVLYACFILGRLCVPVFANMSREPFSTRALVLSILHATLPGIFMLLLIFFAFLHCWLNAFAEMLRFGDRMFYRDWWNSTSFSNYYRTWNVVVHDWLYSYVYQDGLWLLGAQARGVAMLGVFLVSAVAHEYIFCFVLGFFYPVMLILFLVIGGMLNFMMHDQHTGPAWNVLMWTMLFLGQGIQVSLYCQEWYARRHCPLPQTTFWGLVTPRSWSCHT

Compound	pIC50
CCC[C@H]1C/C(=N/OCc2ccccc2)C[C@]2(O1)C(=O)Nc1ccccc12	4.80
CCC[C@@H]1C/C(=N/OCc2ccccc2)C[C@@]2(O1)C(=O)Nc1ccccc12	5.82
CCC[C@@H]1CC(=NOCc2ccccc2)C[C@@]2(O1)C(=O)Nc1ccccc12 (racemic)	5.52
CCC[C@@H]1C[C@@H](NCc2ccccc2)C[C@@]2(O1)C(=O)N(C)c1ccccc12 (racemic)	< 4.57
CCC[C@@H]1C[C@@H](N2CCCC2)C[C@@]2(O1)C(=O)Nc1ccccc12 (racemic)	4.59

The next lines start with the values.

pIC50	Compound
5.03	CCC[C@@H]1CC(=O)C[C@@]2(O1)C(=O)N(C)c1cccc(Br)c12
5.17	CCC[C@@H]1C[C@@H](NCc2ccccc2)C[C@@]2(O1)C(=O)Nc1ccccc12 (racemic)
< 4.48	CCC[C@@H]1C[C@@H](NCc2ccccc2)C[C@@]2(O1)C(=O)N(C)c1cccc(Br)c12 (racemic)
4.92	CCC[C@@H]1C[C@@H](NCc2ccccc2)C[C@@]2(O1)C(=O)Nc1cccc(Br)c12 (racemic)
5.04	CCC[C@@H]1C[C@@H](NCc2ccccc2)C[C@@]2(O1)C(=O)N(Cc1ccccc1)c1ccccc12 (racemic)

tested on: not listed separately; assay: Selectivity index, ratio of IC50 for African green monkey SOAT1 expressed in CHO cells to IC50 for African green monkey SOAT2 expressed in CHO cells; set-up: species or system Chlorocebus aethiops; conditions: not given

Compound	Ratio IC50
CCC[C@@H]1CC(=O)C[C@@]2(O1)C(=O)N(C)c1cccc(Br)c12	>3
CCC[C@H]1C/C(=N/OCc2ccccc2)C[C@]2(O1)C(=O)Nc1ccccc12	0.88
CCC[C@@H]1C/C(=N/OCc2ccccc2)C[C@@]2(O1)C(=O)Nc1ccccc12	10 - 11
CCC[C@@H]1C[C@@H](NCc2ccccc2)C[C@@]2(O1)C(=O)Nc1ccccc12 (racemic)	>4.1
CCC[C@@H]1CC(=NOCc2ccccc2)C[C@@]2(O1)C(=O)Nc1ccccc12 (racemic)	3
CCC[C@@H]1C[C@@H](NCc2ccccc2)C[C@@]2(O1)C(=O)Nc1cccc(Br)c12 (racemic)	>1.9
CCC[C@@H]1C[C@@H](NCc2ccccc2)C[C@@]2(O1)C(=O)N(Cc1ccccc1)c1ccccc12 (racemic)	1.2
CCC[C@@H]1C[C@@H](N2CCCC2)C[C@@]2(O1)C(=O)Nc1ccccc12 (racemic)	>1.2

tested on: not listed separately; assay: Cytotoxicity against CHO cells expressing African green monkey SOAT1 assessed as change in cell shape at 10 ug/ml; assay type: toxicity, cell-based, Cricetulus griseus; conditions: chinese hamster

Compound	Activity
C=CC[C@@]1(O)C[C@@H](CCC)O[C@]2(C1)C(=O)Nc1ccccc12	Non-Toxic
CCC[C@@H]1CC(=O)C[C@@]2(O1)C(=O)N(C)c1cccc(Br)c12	Non-Toxic
CCC[C@@H]1CC(=O)C[C@@]2(O1)C(=O)Nc1cccc(Br)c12	Non-Toxic
CCC[C@@H]1C[C@@H](NCc2ccccc2)C[C@@]2(O1)C(=O)Nc1ccccc12 (racemic)	Non-Toxic

tested on: not listed separately; assay: Cytotoxicity against CHO cells expressing African green monkey SOAT2 assessed as change in cell shape at 10 ug/ml; assay type: toxicity, cell-based, Cricetulus griseus; conditions: chinese hamster

Compound	Activity
C=CC[C@@]1(O)C[C@@H](CCC)O[C@]2(C1)C(=O)Nc1ccccc12	Non-Toxic
CCC[C@@H]1CC(=O)C[C@@]2(O1)C(=O)N(C)c1cccc(Br)c12	Non-Toxic
CCC[C@@H]1CC(=O)C[C@@]2(O1)C(=O)Nc1cccc(Br)c12	Non-Toxic
CCC[C@@H]1C[C@@H](NCc2ccccc2)C[C@@]2(O1)C(=O)Nc1ccccc12 (racemic)	Non-Toxic

target: T3, SOAT1 (sterol O-acyltransferase 1) (Chlorocebus aethiops, UniProt O77760); assay: Inhibition of African green monkey SOAT1 expressed in CHO cells assessed as reduction in [14C]cholesteryl ester formation from [1-14C]oleic acid at 10 ug/ml measured after 6 hrs relative to control; assay type: ADME, cell-based; conditions: CHO cells expressing African green monkey SOAT1, probe [1-14C]oleic acid
T3 sequence (O77760 whole entry): T1 sequence (O77760 whole entry)

Compound	inhibition at 6 h, 10 ug/ml [%]
CCC[C@H]1C/C(=N/OCc2ccccc2)C[C@]2(O1)C(=O)Nc1ccccc12	> 50
CCC[C@@H]1C/C(=N/OCc2ccccc2)C[C@@]2(O1)C(=O)Nc1ccccc12	> 50
CCC[C@@H]1CC(=NOCc2ccccc2)C[C@@]2(O1)C(=O)Nc1ccccc12 (racemic)	> 50
CCC[C@@H]1C[C@@H](NCc2ccccc2)C[C@@]2(O1)C(=O)N(C)c1ccccc12 (racemic)	> 50
CCC[C@@H]1C[C@@H](N2CCCC2)C[C@@]2(O1)C(=O)Nc1ccccc12 (racemic)	> 50

Further lines, results first:

inhibition at 6 h, 10 ug/ml [%]	Compound
> 50	CCC[C@@H]1CC(=O)C[C@@]2(O1)C(=O)N(C)c1cccc(Br)c12
> 50	CCC[C@@H]1C[C@@H](NCc2ccccc2)C[C@@]2(O1)C(=O)Nc1ccccc12 (racemic)
> 50	CCC[C@@H]1C[C@@H](NCc2ccccc2)C[C@@]2(O1)C(=O)N(C)c1cccc(Br)c12 (racemic)
> 50	CCC[C@@H]1C[C@@H](NCc2ccccc2)C[C@@]2(O1)C(=O)Nc1cccc(Br)c12 (racemic)
> 50	CCC[C@@H]1C[C@@H](NCc2ccccc2)C[C@@]2(O1)C(=O)N(Cc1ccccc1)c1ccccc12 (racemic)

target: T4, Sterol O-acyltransferase 2 (Chlorocebus aethiops) (UniProt O77759); assay: Inhibition of African green monkey SOAT2 expressed in CHO cells assessed as reduction in [14C]cholesteryl ester formation from [1-14C]oleic acid at 10 ug/ml measured after 6 hrs relative to control; assay type: cell-based; conditions: not given
T4 sequence (whole entry): T2 sequence (O77759 whole entry)

Compound	inhibition [%]
CCC[C@H]1C/C(=N/OCc2ccccc2)C[C@]2(O1)C(=O)Nc1ccccc12	> 50
CCC[C@@H]1C/C(=N/OCc2ccccc2)C[C@@]2(O1)C(=O)Nc1ccccc12	> 50
CCC[C@@H]1CC(=NOCc2ccccc2)C[C@@]2(O1)C(=O)Nc1ccccc12 (racemic)	> 50
CCC[C@@H]1C[C@@H](NCc2ccccc2)C[C@@]2(O1)C(=O)N(C)c1ccccc12 (racemic)	> 50
CCC[C@@H]1C[C@@H](N2CCCC2)C[C@@]2(O1)C(=O)Nc1ccccc12 (racemic)	> 50

Continued, values first:

inhibition [%]	Compound
> 50	CCC[C@@H]1CC(=O)C[C@@]2(O1)C(=O)N(C)c1cccc(Br)c12
> 50	CCC[C@@H]1C[C@@H](NCc2ccccc2)C[C@@]2(O1)C(=O)Nc1ccccc12 (racemic)
> 50	CCC[C@@H]1C[C@@H](NCc2ccccc2)C[C@@]2(O1)C(=O)N(C)c1cccc(Br)c12 (racemic)
> 50	CCC[C@@H]1C[C@@H](NCc2ccccc2)C[C@@]2(O1)C(=O)Nc1cccc(Br)c12 (racemic)
> 50	CCC[C@@H]1C[C@@H](NCc2ccccc2)C[C@@]2(O1)C(=O)N(Cc1ccccc1)c1ccccc12 (racemic)
